# Experimental data reported in US10786514B2, “Dosage regiment of ferric maltol” (Shield TX (UK) Limited, priority 2015, dated 2020).
# What was measured:
# Type in all cases: in vivo, human
# [1] = Phase I pharmacokinetic study: serum total iron concentration; conditions: for maximum mean serum total iron concentration: Day 1, iron-deficient subjects
# Method: (§1) These studies were primarily pharmacokinetic and conducted in subjects with iron deficiency having active inflammatory disease or acute chronic inflammation. An open-label, randomised, single and repeat dose parallel group Phase I pharmacokinetic study was carried out to evaluate the effect of single and repeated twice daily (bid) oral doses of ST10 at 30 mg, 60 mg and 90 mg for 8 days.
# (§2) 24 subjects with iron deficiency (with or without anaemia) were randomly allocated to one of the three ST10 dose groups as follows:
# (§3) Group 1: 9 subjects received ST10, 30 mg twice daily for 7 days (days 1-7) plus a final 30 mg dose on the morning of day 8.
# (§4) Group 2: 8 subjects received ST10, 60 mg twice daily for 7 days (days 1-7) plus a final 60 mg dose on the morning of day 8.
# (§5) Group 3: 7 subjects received ST10, 90 mg twice daily for 7 days (days 1-7) plus a final 90 mg dose on the morning of day 8.
# (§6) On day 1, following fasting for at least 1.5-2 hours beforehand, ST10 was administered (30 mg, 60 mg or 90 mg) and blood samples collected over the following 6 h for analysis. 60 mg was administered as two 30 mg capsules and 90 mg was administered as three 30 mg capsules, both as a single dose. Subjects continued dosing with ST10 on the evening of day 1 then every morning and evening for the next 6 days (Days 2 to 7).
# On day 8 following fasting for at least 1.5-2 hours beforehand the last dosing of ST10 was administered (30 mg, 60 mg or 90 mg) and blood samples collected over the following 6 h for analysis.
# On Days 1 and 8 blood samples were collected predose (0 h=time of ST10 dose) and at 5 minutes(for NTBI only), 15 minutes, 30 minutes, 45 minutes, and 1, 1.5, 2, 3, 4 and 6 h postdose.
# These studies used transferrin saturation and total serum iron as measurements of iron uptake from the gut into the transport mechanisms. In addition serum ferritin was used as a measure of iron storage status at the end of the dosing period; all of these measurements are standard and well recognised.
# One subject in the 60 mg dose group prematurely withdrew from the study on Day 7, so full profiles of all serum iron parameters were available in the 30 mg dose group for 9 subjects (days 1 and 8), in the 60 mg dose group 8 subjects on day 1 and for 7 subjects on day 8, and in the 90 mg dose group for 7 subjects (days 1 and 8).
# [2] = Phase I pharmacokinetic study: total iron binding capacity (TIBC); conditions: over time and across 30, 60, 90 mg dose groups
# Method: as §1, §6
# On day 8 following fasting for at least 1.5-2 hours beforehand the last dosing of ST10 was administered (30 mg, 60 mg or 90 mg) and blood samples collected over the following 6 h for analysis. […]
# Serum concentrations of transferrin, total iron binding capacity (TIBC), ferritin and soluble transferrin receptor; and reticulocyte haemoglobin concentrations (CHr) in whole blood were measured by central laboratories using appropriately validated methods. […]
# [3] = Phase I pharmacokinetic study: tolerability; conditions: doses above 30 mg and up to 90 mg twice daily, 8 days, iron-deficient subjects with active inflammatory disease
# Method: as §1, §2, §3, §4, §5
substance,measurement,setting,value
ferric trimaltol [ST10],maximum mean serum total iron concentration,[1]; 30 mg oral dose group,32.3 µmol/L
same,maximum mean serum total iron concentration,[1]; 60 mg oral dose group,49.1 µmol/L
same,maximum mean serum total iron concentration,[1]; 90 mg oral dose group,48.7 µmol/L
same,serum total iron concentrations on Day 8 versus Day 1,"[1]; Day 8, 30, 60, 90 mg dose groups",Comparable
same,"total iron binding capacity, mean concentration",[2],approximately 70 μmol/L
same,tolerability,[3],well tolerated
